This is an account of results in patent US20060063784A1, “Method of using substituted pyrazolo [1,5-a] pyrimidines” (priority 2004, published 2006).

Structures are written as SMILES. Where “and” joins values, the source holds several entries; their conditions need not be identical. Equal values may be shown once. Read-outs that look alike come from different tables or passages of the source. Where only a bound is given, the exact number is not on record here.

The subject of data set [1] is 80S14 (p21-deficient) cells. Briefly: Cytotoxicity assay using isogenic cell lines: IC50 in 80S14 (p21-deficient) cells, SRB. The data set is classed as cell-based, human. The settings on record: Homo sapiens, 120 h, SRB. Put shortly: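 80S14 (p21-deficient) cells seeded at 12,000 cells/well overnight, then exposed 5 days at 37 °C to serial dilutions (5 pM–50 μM or 170 pg/ml–10 μg/ml). TCA-fixed, sulforhodamine B-stained, absorbance at 560 nm; IC50 taken from cytotoxicity curves versus untreated controls.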

Data set [2] relates to LoVo Colon cell line. Briefly: Cytotoxicity assay using LoVo colon cell line, SRB. The data set is classed as cell-based. The settings on record: Homo sapiens, 96 h, 4 days incubation, SRB, read-out: Inhibition of LoVo. Summed up:
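LoVo cells (4000/well, RPMI 1640 with 10% FBS, 37 °C, 7% CO2) seeded overnight, then exposed 4 days to serial dilutions spanning 5 pM-20 μM or 170 pg/ml-10 μg/ml. Survival by SRB staining; IC50 from curves relative to untreated controls.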

The mark [3] stands for this setting: 80S14 (p21-deficient) cells, 5 days, class symbols, read-out: IC50 for 80S14.
[4] abbreviates: 80S14 p21-deficient cells, 5 days incubation, read-out: IC50 for 80SI4.

Turning to `O=C(c1ccco1)c1cnn2c(-c3cccc(NC(=O)C4CC4)c3)ccnc12` [Example 235, N-[3-[3-(2-Furanylcarbonyl)-pyrazolo[1,5-a]pyrimidin-7-yl]phenyl}-cyclopropanecarboxamide], the melting point lay within 227 to 230 °C. For the same compound, in data set [1] (setting [3]), the IC50 was less than 1000 nM.
In turn, `CCCCNC(=O)Nc1cccc(-c2ccnc3c(C(=O)c4cccs4)cnn23)c1` [Example 8, N-butyl-N′-{3-[3-(thien-2-ylcarbonyl)pyrazolo[1,5-a]pyrimidin-7-yl]phenyl}urea] registered a melting point of 158 to 160 °C. The IC50 in data set [2] (LoVo colon cells) is less than 100 nM. In data set [1] (setting [4]), the IC50 was less than 1000 nM.
`Cc1cn(-c2cccc(-c3ccnc4c(C(=O)c5cccs5)cnn34)c2)cn1` [Example 247, [7-[3-(4-Methyl-1H-imidazol-1-yl)phenyl]-pyrazolo[1,5-a]pyrimidin-3-yl]-2-thienyl-methanone] had a melting point of 232 to 234 °C. The IC50 in data set [2] (Cellular activity in LoVo cell) is 100 to 1000 nM. Also, in data set [1] (setting [3]), the IC50 lay within 1000 to 10000 nM.
As for `CC(C)NC(=NC#N)Nc1cccc(-c2ccnc3c(C(=O)c4cccs4)cnn23)c1` [Example 414, N″-Cyano-N-isopropyl-N′-{3-[3-(thien-2-ylcarbonyl)pyrazolo[1,5-a]pyrimidin-7-yl]phenyl}guanidine], the melting point fell in the range of 240 to 241 °C. Moreover, in data set [1] (setting [3]), the IC50 is less than 1000 nM.
Turning to `CC(C)CCNc1cccc(-c2ccnc3c(C(=O)c4cccs4)cnn23)c1` [Example 350, {7-[3-(Isopentylamino)phenyl]pyrazolo[1,5-a]pyrimidin-3-yl}(thien-2-yl)methanone], the melting point was in the range of 75 to 77 °C. Also, the IC50 in data set [2] (Cellular activity in LoVo cell) was less than 100 nM. Moreover, the IC50 in data set [1] (setting [3]) was less than 1000 nM.
In turn, `O=C(c1cccs1)c1cnn2c(-c3cccc(NC(=O)C4CC4)c3)ccnc12` [Example 249, N-[3-[3-(2-Thienylcarbonyl)pyrazolo[1,5-a]pyrimidin-7-yl]phenyl}-cyclopropanecarboxamide] had a melting point of 192 to 194 °C. Besides, the IC50 in data set [1] (setting [3]) is less than 1000 nM.
Consider `CC(C)CC(=O)Nc1cccc(-c2ccnc3c(-c4cccc(N)c4)cnn23)c1` [Example 464, N-{3-[3-(3-Aminophenyl)pyrazolo[1,5-a]pyrimidin-7-yl]phenyl}-3-methylbutanamide], for which the melting point was 173 to 175 °C. In addition, the IC50 in data set [2] (Cellular activity in LoVo cell) was 1000 to 20000 nM. Also, in data set [1] (setting [3]), the IC50 fell in the range of 10000 to 50000 nM.
In the case of `O=C(Nc1cccc(-c2ccnc3c(C(=O)c4cccs4)cnn23)c1)c1ccncc1` [Example 291, N-{3-[3-(2-Thienylcarbonyl)pyrazolo[1,5-a]pyrimidin-7-yl]phenyl}isonicotinamide], the melting point lay within 212 to 215 °C. In addition, in data set [2] (Cellular activity in LoVo cell), the IC50 is less than 100 nM. The IC50 in data set [1] (setting [3]) was less than 1000 nM.
The corresponding values for `O=C(c1cccs1)c1cnn2c(-c3cccc(-c4cc[nH]n4)c3)ccnc12` [Example 514, {7-[3-(1H-Pyrazol-3-yl)phenyl]pyrazolo[1,5-a]pyrimidin-3-yl}(thien-2-yl)methanone] are 129 °C, 100 to 1000 nM and less than 1000 nM.
`O=C(c1cccs1)c1cnn2c(-c3cccc(-n4ccnc4)c3)ccnc12` [Example 244, [7-[3-(1H-imidazol-1-yl)phenyl]pyrazolo-[1,5-a]pyrimidin-3-yl]-2-thienyl-methanone] showed a melting point of 242 to 244 °C. Besides, the IC50 in data set [1] (setting [3]) lay within 1000 to 10000 nM.
With `Nc1cccc(-c2ccnc3c(C(=O)c4cccs4)cnn23)c1` [Example 262, [7-(3-Aminophenyl)pyrazolo[1,5-a]pyrimidin-3-yl]-2-thienyl-methanone], the melting point is 183 to 184 °C and 183 to 185 °C. The IC50 in data set [1] (setting [3]) lay in the range of 10000 to 50000 nM.
Consider `CC(C)NC(=N)Nc1cccc(-c2ccnc3c(C(=O)c4cccs4)cnn23)c1` [Example 411, N-Isopropyl-N′-{3-[3-(thien-2-ylcarbonyl)pyrazolo[1,5-a]pyrimidin-7-yl]phenyl}guanidine], for which the melting point is greater than 200 °C. Also, in data set [1] (setting [3]), the IC50 lay in the range of 10000 to 50000 nM.
Turning to `O=C(c1cccs1)c1cnn2c(-c3cccs3)ccnc12` [Example 224, 2-Thienyl[7-(2-thienyl)pyrazolo[1,5-a]-pyrimidin-3-yl}-methanone], the melting point is 193 to 195 °C. The IC50 in data set [1] (setting [3]) was 1000 to 10000 nM.
With `Cc1ccccc1C(=O)Nc1cccc(-c2ccnc3c(C(=O)c4cccs4)cnn23)c1` [Example 94, 2-methyl-N-{3-[3-(thien-2-ylcarbonyl)pyrazolo[1,5-a]pyrimidin-7-yl]phenyl}benzamide], the IC50 is less than 100 nM in data set [2] (LoVo colon cells) and less than 1000 nM in data set [1] (setting [4]).
Consider `O=C(Nc1ccc(-c2ccnc3c(C(=O)c4cccs4)cnn23)s1)c1ccccc1` [Example 361, N-{5-[3-(Thien-2-ylcarbonyl)pyrazolo[1,5-a]pyrimidin-7-yl]thien-2-yl}benzamide], for which the IC50 in data set [2] (Cellular activity in LoVo cell) lay within 1000 to 20000 nM; in data set [1] (setting [3]), 10000 to 50000 nM.
Take `COCCN(CCOC)C(=O)Nc1cccc(-c2ccnc3c(C(=O)c4cccs4)cnn23)c1` [Example 168, N,N-bis(2-methoxyethyl)-N′-{3-[3-(thien-2-ylcarbonyl)pyrazolo[1,5-a]pyrimidin-7-yl]phenyl}urea]: the IC50 in data set [2] (LoVo colon cells) was in the range of 1000 to 2000 nM; in data set [1] (setting [4]), 10000 to 50000 nM.
On to `Cc1cc(-c2cccc(NC(=O)C3CCCC3)c2)n2ncc(C(=O)c3cccs3)c2n1` [Example 204, N-{3-[5-methyl-3-(thien-2-ylcarbonyl)pyrazolo[1,5-a]pyrimidin-7-yl]phenyl}cyclopentanecarboxamide], for which the IC50 in data set [2] (LoVo colon cells) is 100 to 1000 nM; in data set [1] (setting [4]), less than 1000 nM.
For the compound `O=C(Nc1cccc(-c2ccnc3c(C(=O)c4cccs4)cnn23)c1)c1ccccc1C(F)(F)F` [Example 96, N-{3-[3-(thien-2-ylcarbonyl)pyrazolo[1,5-a]pyrimidin-7-yl]phenyl}-2-(trifluoromethyl)benzamide], the IC50 is less than 100 nM in data set [2] (LoVo colon cells) and less than 1000 nM in data set [1] (setting [4]).
`O=C(Nc1cccc(-c2ccnc3c(C(=O)c4cccs4)cnn23)c1)OCC1CCCCC1` [Example 175, cyclohexylmethyl 3-[3-(thien-2-ylcarbonyl)pyrazolo[1,5-a]pyrimidin-7-yl]phenylcarbamate]: the figures for the IC50 in data set [2] (LoVo colon cells) and in data set [1] (setting [4]) were less than 100 nM and less than 1000 nM, respectively.
As for `O=C(Nc1cccc(-c2ccnc3c(C(=O)c4cccs4)cnn23)c1)c1cccs1` [Example 51, N-{3-[3-(thien-2-ylcarbonyl)pyrazolo[1,5-a]pyrimidin-7-yl]phenyl}thiophene-2-carboxamide], the IC50 was less than 100 nM in data set [2] (LoVo colon cells) and less than 1000 nM in data set [1] (setting [4]).
On to `O=C(Nc1cccc(-c2ccnc3c(C(=O)c4cccs4)cnn23)c1)c1ccccn1` [Example 360, N-{3-[3-(Thien-2-ylcarbonyl)pyrazolo[1,5-a]pyrimidin-7-yl]phenyl}pyridine-2-carboxamide], for which the IC50 is less than 100 nM in data set [2] (Cellular activity in LoVo cell) and less than 1000 nM in data set [1] (setting [3]).
As to `O=C(c1cccs1)c1cnn2c(-c3ccc(F)c(N(C(=O)c4ccccc4Cl)C(=O)c4ccccc4Cl)c3)ccnc12` [Example 438, 2-Chloro-N-(2-chlorobenzoyl)-N-{2-fluoro-5-[3-(thien-2-ylcarbonyl)pyrazolo[1,5-a]pyrimidin-7-yl]phenyl}benzamide], the IC50 in data set [2] (Cellular activity in LoVo cell) is less than 100 nM; in data set [1] (setting [3]) it was less than 1000 nM.
Regarding `O=C(c1cccs1)c1cnn2c(-c3cccc(NC(=O)N4CCCC4)c3)ccnc12` [Example 170, N-{3-[3-(thien-2-ylcarbonyl)pyrazolo[1,5-a]pyrimidin-7-yl]phenyl}pyrrolidine-1-carboxamide], the IC50 in data set [2] (LoVo colon cells) fell in the range of 100 to 1000 nM; in data set [1] (setting [4]) it was 1000 to 10000 nM.
`COc1cc(-c2cnn3c(-c4cccc(NC(=O)CC(C)C)c4)ccnc23)cc(OC)c1OC` [Example 467, 3-Methyl-N-{3-[3-(3,4,5-trimethoxyphenyl)pyrazolo[1,5-a]pyrimidin-7-yl]phenyl}butanamide]: the IC50 in data set [2] (Cellular activity in LoVo cell) was less than 100 nM; in data set [1] (setting [3]) it was less than 1000 nM.
On to `O=C(Cc1ccncc1)Nc1cccc(-c2ccnc3c(C(=O)c4cccs4)cnn23)c1` [Example 427, 2-Pyridin-4-yl-N-{3-[3-(thien-2-ylcarbonyl)pyrazolo[1,5-a]pyrimidin-7-yl]phenyl}acetamide], for which the IC50 in data set [2] (Cellular activity in LoVo cell) was 1000 to 20000 nM; in data set [1] (setting [3]), less than 1000 nM.
Consider `Nc1cc(-c2ccnc3c(C(=O)c4cccs4)cnn23)ccc1F` [Example 352, [7-(3-Amino-4-fluorophenyl)pyrazolo[1,5-a]pyrimidin-3-yl](thien-2-yl)methanone], for which the IC50 lay within 1000 to 20000 nM in data set [2] (Cellular activity in LoVo cell) and 1000 to 10000 nM in data set [1] (setting [3]).
`CC(C)CC(=O)Nc1cccc(-c2ccnc3c(-c4cc(Cl)cc(Cl)c4)cnn23)c1` [Example 475, N-{3-[3-(3,5-Dichlorophenyl)pyrazolo[1,5-a]pyrimidin-7-yl]phenyl}-3-methylbutanamide]: the IC50 in data set [2] (Cellular activity in LoVo cell) lay within 1000 to 20000 nM; in data set [1] (setting [3]) it was 1000 to 10000 nM.
`O=C(c1ccco1)c1cnn2c(-c3cccc(-n4cccc4)c3)ccnc12` [Example 269, 2-Furanyl[7-[3-(1H-pyrrol-1-yl)phenyl]pyrazolo[1,5-a]pyrimidin-3-yl]-methanone] gave a melting point of 204 to 206 °C. In addition, in data set [1] (setting [3]), the IC50 was in the range of 1000 to 10000 nM.
For `C=CCCOC(=O)Nc1cccc(-c2cc(C)nc3c(C(=O)c4cccs4)cnn23)c1` [Example 199, but-3-enyl 3-[5-methyl-3-(thien-2-ylcarbonyl)pyrazolo[1,5-a]pyrimidin-7-yl]phenylcarbamate], the IC50 in data set [2] (LoVo colon cells) is less than 100 nM; in data set [1] (setting [4]) it was less than 1000 nM.
